“Also recorded” adds a separate entry of the source.
Legend:
[1] = into 100 g water at 20° C.; cited from earlier work
[2] = Drinking test: test drink intake after one hour of exercising; format: in vivo, human; settings: for blood free fatty acid levels changes over time: FIG. 4; for blood lactic acid levels changes over time: FIG. 5; for blood total ketone bodies levels changes over time: FIG. 13; for amount of oxidized carbohydrate changes over time / amount of oxidized lipids (fat) changes over time: calculated from VO2 and VCO2 by Frayn's equation; for amount of oxidized carbohydrate changes over time: FIG. 7; for amount of oxidized lipids (fat) changes over time: FIG. 8; for respiratory quotient changes over time: calculated from oxygen intake and carbon dioxide excretion, FIG. 6; for lipid oxidation, overall finding: recognized from FIGS. 4, 5, 7 and 8; for blood glucose levels (blood sugar level) changes over time: male subjects with suspected metabolic syndrome, drink in 500 ml water taken after 1 h exercise at about 50% VO2 max, blood sampled 10-120 min after intake, FIG. 1
Procedure: To male subjects with suspected metabolic syndrome and 85 cm or more of abdominal circumferences who lack in exercise, the following test was conducted. […] The subjects, who had family histories of cardiopathy or type 2 diabetes and/or had dyslipidemia, were eliminated from the test. Palatinose or high-fructose corn syrup was dissolved in 500 ml of water so that its intake per kg of body weight could be 1.0 g of the solid, and sucralose, a high intensity sweetener, was dissolved in 500 ml of water so that its intake per kg of body weight could be 1.33 mg of the solid that gives the degree of sweetness between the high-fructose corn syrup and palatinose solutions, to prepare three kinds of test drinks. For these three kinds of drinks, drinking tests were conducted, respectively and each test was conducted at intervals of ten days or longer. The high-fructose corn syrup is composed of glucose and fructose, the same constituent sugars as sucrose and palatinose, and its calorie per the solid is 4 kcal/g which is the same value as that of sucrose and palatinose.
The method of physical measurement for the subjects was based on ACSM guideline (American College of Sports Medicine, 2001). Respiratory gas was collected and analyzed by a respiratory gas automatic analyzer (Oxycon Alpha, manufactured by Mijnhardt) every 30 seconds during the test. Maximal oxygen uptake (VO2max) was calculated by increasing exercise loading gradually with a bicycle ergometer (818E, manufactured by Monark).
The tests were conducted as a double-blind crossover tests and dietary restriction was imposed on the subjects from two days before the tests. All subjects were instructed to abstain from alcohol, caffeine, green tea and high-intensity exercising 24 hours before the tests. Moreover, they recorded food intake two days before the first tests and repeated the same food intake before the second tests. This is for standardizing of the food intake before the tests and for minimizing the change of glycogen storage. All subjects took the same food as the dinner a day before all tests (725 kcal, 60% of the energy from carbohydrate, 30% from lipid and 10% from protein). After an overnight (10 hours to 12 hours) fast, the tests were conducted. During the fasting period, they were permitted to take water freely.
In order to avoid the effect of circadian rhythm, the tests were started at the same time. After the 15 minutes rest, the first venous blood sampling was conducted. The subjects exercised for an hour with loading of about 50% of VO2 max by a bicycle ergometer. After exercising, blood sampling was conducted and they took the test drinks for 5 minutes. Blood sampling was conducted at time points of 10, 20, 30, 45, 60, 75, 90, 105 and 120 minutes after the test drink was taken in. The collected blood samples were submitted for various biochemical measurements. After the drink intake, their heart rates were continuously measured with an electrocardiograph (Dyan Scope, manufactured by Fukuda Denshi).
On the assumption that oxidation of proteins during exercising can be ignored, oxidation of total carbohydrates and lipids was calculated from VO2 and VCO2 using Frayn's equation. The VO2 and VCO2 represent oxygen intake and carbon dioxide excretion in L/min, respectively. Respiratory quotient (RQ) was calculated from oxygen intake and carbon dioxide excretion. Calorie consumption rate was calculated from RQ and VO2 using Lusk's equation.

Structure (SMILES)	solubility into 100 g water [1]	blood insulin levels changes over time (insulin secretion) ([2]; drink intake after exercising, FIG. 2)	blood free fatty acid levels changes over time ([2]; drink intake after exercising)	blood lactic acid levels changes over time ([2]; drink intake after exercising)	blood neutral fat levels changes over time ([2]; drink intake after exercising, FIG. 9)	blood epinephrine levels changes over time ([2]; drink intake after exercising, FIG. 10)	blood nolepinephrine levels changes over time ([2]; drink intake after exercising, FIG. 11)	blood total ketone bodies levels changes over time ([2]; drink intake after exercising)	amount of oxidized carbohydrate changes over time ([2]; drink intake after exercising)	amount of oxidized lipids (fat) changes over time ([2]; drink intake after exercising)	respiratory quotient changes over time ([2]; drink intake after exercising)	lipid oxidation, overall finding ([2]; drink intake after exercising)	blood glucose levels (blood sugar level) changes over time [2]	blood 3-OHBA levels changes over time ([2]; drink intake after exercising, FIG. 12)
O.OC[C@H]1O[C@H](OC[C@H]2OC(O)(CO)[C@@H](O)[C@@H]2O)[C@H](O)[C@@H](O)[C@@H]1O (stereo partly shown) [Palatinose monohydrate]	38.4 g	–	–	–	–	–	–	–	–	–	–	–	–	–
OC[C@H]1O[C@H](OC[C@H]2OC(O)(CO)[C@@H](O)[C@@H]2O)[C@H](O)[C@@H](O)[C@@H]1O (stereo partly shown) [palatinose, isomaltulose]	–	mild	between those in taking high-fructose corn syrup and in taking sucralose	between those in taking high-fructose corn syrup and in taking sucralose	no effect	no effect	no effect	dropped without their accumulation in blood; also recorded: inhibit accumulation of ketone bodies	between those of high-fructose corn syrup and sucralose	between those of high-fructose corn syrup and sucralose	between those in taking high-fructose corn syrup and in taking sucralose	rather difficult to prevent	rose slowly thereafter, surpassed that in the case of taking high-fructose corn syrup around 60 minutes thereafter, and continued maintaining a relatively high value	–
OC[C@H]1O[C@H](O[C@]2(CCl)O[C@H](CCl)[C@@H](O)[C@@H]2O)[C@H](O)[C@@H](O)[C@H]1Cl [sucralose, reference compound]	–	–	the higher values were maintained	no change	–	–	–	rose	lower values	higher values	~0.7	maintained	did not rise	rose

Reference: US20120270832A1, “KETONE ACCUMULATION INHIBITOR” (MITSUI SUGAR CO., LTD., priority 2008, published 2012)
